Target: T1, BTK protein (Homo sapiens, UniProt Q06187)
T1 construct: endogenous in cells; host or cells: TMD-8 cells
Assay: Measurement of BTK protein degradation ability in TMD-8 cells (Western blotting)
Type: cell-based
Conditions: harvested after 24 hours; for BTK degradation (%) 1 nM: compound 1 nM; for BTK degradation (%) 10 nM: compound 10 nM; for BTK degradation (%) 100 nM: compound 100 nM
Summary of the method: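 BTK levels were measured by immunoblotting of equal-protein RIPA lysates, normalized to GAPDH or β-actin, with chemiluminescent or infrared detection. Lysates came from TMD-8 cells exposed to compound for 24 h at final concentrations of 0.1, 1, 10 μM or 0.0001–0.1 μM, against a DMSO control.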

T1 sequence (Q06187 whole entry): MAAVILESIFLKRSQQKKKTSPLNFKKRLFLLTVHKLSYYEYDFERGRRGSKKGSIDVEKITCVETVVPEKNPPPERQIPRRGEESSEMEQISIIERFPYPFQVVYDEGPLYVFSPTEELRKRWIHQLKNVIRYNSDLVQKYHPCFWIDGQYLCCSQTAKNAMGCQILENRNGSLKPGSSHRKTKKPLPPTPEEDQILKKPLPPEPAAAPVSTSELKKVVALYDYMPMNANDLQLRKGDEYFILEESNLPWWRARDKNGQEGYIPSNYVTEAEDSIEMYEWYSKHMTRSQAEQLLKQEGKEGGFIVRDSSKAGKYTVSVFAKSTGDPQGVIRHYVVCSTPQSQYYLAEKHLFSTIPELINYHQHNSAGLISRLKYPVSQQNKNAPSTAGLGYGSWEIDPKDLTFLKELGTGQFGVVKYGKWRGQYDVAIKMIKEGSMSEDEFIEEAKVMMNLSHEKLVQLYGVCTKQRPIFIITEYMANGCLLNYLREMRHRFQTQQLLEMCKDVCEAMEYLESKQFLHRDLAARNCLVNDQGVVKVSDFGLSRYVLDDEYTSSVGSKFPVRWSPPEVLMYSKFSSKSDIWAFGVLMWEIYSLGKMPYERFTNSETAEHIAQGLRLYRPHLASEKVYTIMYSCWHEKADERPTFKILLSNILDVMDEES

SMILES | BTK degradation (%) 1 nM [%] | BTK degradation (%) 10 nM [%] | BTK degradation (%) 100 nM [%]
Cc1cc(-c2ccnc(Nc3ccc(N4CCC(CN5CCC(c6ccc(NC7CCC(=O)NC7=O)cn6)CC5)CC4)cc3)n2)ccc1CNC(=O)c1cnn(C(C)C)c1 (stereo not drawn) [Example 128, N-(4-(2-((4-(4-((4-(5-((2,6-dioxopiperidin-3-yl)amino)pyridin-2-yl)piperidin-1-yl)methyl)piperidin-1-yl)phenyl)amino)pyrimidin-4-yl)-2-methylbenzyl)-1-isopropyl-1H-pyrazole-4-carboxamide] | 51.5 | 94.5 | 99.0
Cc1cc(-c2ccnc(Nc3ccc(N4CCC(CN5CCN(c6ccc(NC7CCC(=O)NC7=O)cn6)CC5)CC4)cc3)n2)ccc1CNC(=O)c1cnn(C(C)C)c1 (stereo not drawn) [Example 129, N-(4-(2-((4-(4-((4-(5-((2,6-dioxopiperidin-3-yl)amino)pyridin-2-yl)piperazin-1-yl)methyl)piperidin-1-yl)phenyl)amino)pyrimidin-4-yl)-2-methylbenzyl)-1-isopropyl-1H-pyrazole-4-carboxamide] | 49.0 | 95.5 | 100.0
Cc1cc(-c2ccnc(Nc3ccc(N4CCC(CN5CCC(c6ccc(NC7CCC(=O)NC7=O)cn6)CC5)CC4)cc3)n2)ccc1CNC(=O)c1cnn(C(C)(C)C)c1 (stereo not drawn) [Example 130, 1-(tert-butyl)-N-(4-(2-((4-(4-((4-(5-((2,6-dioxopiperidin-3-yl)amino)pyridin-2-yl)piperidin-1-yl)methyl)piperidin-1-yl)phenyl)amino)pyrimidin-4-yl)-2-methylbenzyl)-1H-pyrazole-4-carboxamide] | 56.5 | 95.0 | 99.5
Cc1cc(-c2ccnc(Nc3ccc(N4CCC(CN5CCN(c6ccc(NC7CCC(=O)NC7=O)cn6)CC5)CC4)cc3)n2)ccc1CNC(=O)c1cnn(C(C)(C)C)c1 (stereo not drawn) [Example 131, 1-(tert-butyl)-N-(4-(2-((4-(4-((4-(5-((2,6-dioxopiperidin-3-yl)amino)pyridin-2-yl)piperazin-1-yl)methyl)piperidin-1-yl)phenyl)amino)pyrimidin-4-yl)-2-methylbenzyl)-1H-pyrazole-4-carboxamide] | 59.5 | 96.0 | 100.0
Cc1cc(-c2ccnc(Nc3ccc(N4CCC(CN5CCC(c6ccc(NC7CCC(=O)NC7=O)cn6)CC5)CC4)cc3)n2)ccc1CNC(=O)c1cn(C(C)(C)C)nn1 (stereo not drawn) [Example 132, 1-(tert-butyl)-N-(4-(2-((4-(4-((4-(5-((2,6-dioxopiperidin-3-yl)amino)pyridin-2-yl)piperidin-1-yl)methyl)piperidin-1-yl)phenyl)amino)pyrimidin-4-yl)-2-methylbenzyl)-1H-1,2,3-triazole-4-carboxamide] | 54.5 | 95.5 | 100.0
Cc1cc(-c2ccnc(Nc3ccc(N4CCC(CN5CCN(c6ccc(NC7CCC(=O)NC7=O)cn6)CC5)CC4)cc3)n2)ccc1CNC(=O)c1cn(C(C)(C)C)nn1 (stereo not drawn) [Example 133, 1-(tert-butyl)-N-(4-(2-((4-(4-((4-(5-((2,6-dioxopiperidin-3-yl)amino)pyridin-2-yl)piperazin-1-yl)methyl)piperidin-1-yl)phenyl)amino)pyrimidin-4-yl)-2-methylbenzyl)-1H-1,2,3-triazole-4-carboxamide] | 60.5 | 96.5 | 100.0
Cc1cc(-c2ccnc(Nc3ccc(N4CCC(CN5CCC(c6ccc(NC7CCC(=O)NC7=O)cc6)CC5)CC4)cc3)n2)ccc1CNC(=O)c1cnn(C(C)C)c1 (stereo not drawn) [Example 134, N-(4-(2-((4-(4-((4-(4-((2,6-dioxopiperidin-3-yl)amino)phenyl)piperidin-1-yl)methyl)piperidin-1-yl)phenyl)amino)pyrimidin-4-yl)-2-methylbenzyl)-1-isopropyl-1H-pyrazole-4-carboxamide] | 58.5 | 93.5 | 98.5
Cc1cc(-c2ccnc(Nc3ccc(N4CCC(CN5CCC(c6ccc(NC7CCC(=O)NC7=O)cc6)CC5)CC4)cc3)n2)ccc1CNC(=O)c1cnn(C(C)(C)C)c1 (stereo not drawn) [Example 135, 1-(tert-butyl)-N-(4-(2-((4-(4-((4-(4-((2,6-dioxopiperidin-3-yl)amino)phenyl)piperidin-1-yl)methyl)piperidin-1-yl)phenyl)amino)pyrimidin-4-yl)-2-methylbenzyl)-1H-pyrazole-4-carboxamide] | 59.0 | 94.5 | 99.0
Cc1cc(-c2ccnc(Nc3ccc(N4CCC(CN5CCC(c6ccc(NC7CCC(=O)NC7=O)cc6)CC5)CC4)cc3)n2)ccc1CNC(=O)c1cn(C(C)(C)C)nn1 (stereo not drawn) [Example 136, 1-(tert-butyl)-N-(4-(2-((4-(4-((4-(4-((2,6-dioxopiperidin-3-yl)amino)phenyl)piperidin-1-yl)methyl)piperidin-1-yl)phenyl)amino)pyrimidin-4-yl)-2-methylbenzyl)-1H-1,2,3-triazole-4-carboxamide] | 71.0 | 95.5 | 98.5
Cc1cc(-c2ccnc(Nc3ccc(N4CCC(CN5CCC(c6ccc(NC7CCC(=O)NC7=O)cc6)CC5)CC4)cc3)n2)cnc1CNC(=O)c1cn(C(C)(C)C)nn1 (stereo not drawn) [Example 137, 1-(tert-butyl)-N-((5-(2-((4-(4-((4-(4-((2,6-dioxopiperidin-3-yl)amino)phenyl)piperidin-1-yl)methyl)piperidin-1-yl)phenyl)amino)pyrimidin-4-yl)-3-methylpyridin-2-yl)methyl)-1H-1,2,3-triazole-4-carboxamide] | 25.0 | 81.5 | 97.0
Cc1cc(-c2ccnc(Nc3ccc(N4CCC(CN5CCC(c6cccc(N7CCC(=O)NC7=O)c6)CC5)CC4)cc3)n2)ccc1CNC(=O)c1cn(C(C)(C)C)nn1 [Example 138, 1-(tert-butyl)-N-(4-(2-((4-(4-((4-(3-(2,4-dioxotetrahydropyrimidin-1 (2H)-yl)phenyl)piperidin-1-yl)methyl)piperidin-1-yl)phenyl)amino)pyrimidin-4-yl)-2-methylbenzyl)-1H-1,2,3-triazole-4-carboxamide] | 15.5 | 71.5 | 90.0
Cc1cc(-c2ccnc(Nc3ccc(N4CCC(CN5CCC(c6ccc(N7CCC(=O)NC7=O)cc6)CC5)CC4)cc3)n2)ccc1CNC(=O)c1cn(C(C)(C)C)nn1 [Example 139, 1-(tert-butyl)-N-(4-(2-((4-(4-((4-(4-(2,4-dioxotetrahydropyrimidin-1 (2H)-yl)phenyl)piperidin-1-yl)methyl)piperidin-1-yl)phenyl)amino)pyrimidin-4-yl)-2-methylbenzyl)-1H-1,2,3-triazole-4-carboxamide] | 15.5 | 68.0 | 95.0
Cc1cc(-c2ccnc(Nc3ccc(CN4CCC(CN5CCC(c6cccc(N7CCC(=O)NC7=O)c6)CC5)CC4)cc3)n2)ccc1CNC(=O)c1cn(C(C)(C)C)nn1 [Example 140] | 0.5 | 10.5 | 77.0
Cc1cc(-c2ccnc(Nc3ccc(CN4CCC(CN5CCC(c6ccc(N7CCC(=O)NC7=O)cc6)CC5)CC4)cc3)n2)ccc1CNC(=O)c1cn(C(C)(C)C)nn1 [Example 141, 1-(tert-butyl)-N-(4-(2-((4-((4-((4-(4-(2,4-dioxotetrahydropyrimidin-1 (2H)-yl)phenyl)piperidin-1-yl)methyl)piperidin-1-yl)methyl)phenyl)amino)pyrimidin-4-yl)-2-methylbenzyl)-1H-1,2,3-triazole-4-carboxamide] | 15.0 | 70.5 | 96.5
Cc1cc(-c2ccnc(Nc3ccc(CN4CCC(CN5CCC(c6ccc(NC7CCC(=O)NC7=O)cc6)CC5)CC4)cc3)n2)ccc1CNC(=O)c1cn(C(C)(C)C)nn1 (stereo not drawn) [Example 142, 1-(tert-butyl)-N-(4-(2-((4-((4-((4-(4-((2,6-dioxopiperidin-3-yl)amino)phenyl)piperidin-1-yl)methyl)piperidin-1-yl)methyl)phenyl)amino)pyrimidin-4-yl)-2-methylbenzyl)-1H-1,2,3-triazole-4-carboxamide] | 44.5 | 88.5 | 99.0
CC(C)(C)n1cc(C(=O)NCc2ccc(-c3ccnc(Nc4ccc(N5CCC(CN6CCC(c7ccc(NC8CCC(=O)NC8=O)cc7)CC6)CC5)cc4)n3)cc2CO)nn1 (stereo not drawn) [Example 143, 1-(tert-butyl)-N-(4-(2-((4-(4-((4-(4-((2,6-dioxopiperidin-3-yl)amino)phenyl)piperidin-1-yl)methyl)piperidin-1-yl)phenyl)amino)pyrimidin-4-yl)-2-(hydroxymethyl)benzyl)-1H-1,2,3-triazole-4-carbamide] | 74.0 | 99.5 | 100.0

— patent publication US20250041429A1, “COMPOUND HAVING BTK PROTEIN DEGRADATION ACTIVITY, AND MEDICAL USES THEREOF” (UBIX THERAPEUTICS, INC., priority 2021, published 2025)
